Entries after “also recorded” stand apart in the source; their conditions may differ. Residues, ends and D or L forms follow the SMILES beside them. *: point of attachment. Cbz = O=C(OCc1ccccc1)*
Experiments:
[1] = test system: leukemia stem cells (LSCs) CD34+CD38low or negCD123+ from AML patient samples; assay: High throughput functional drug screen (72-hour exposure, CellTiter Glo viability) on FACS sorted LSCs; assay type: cell-based, human; parameters: AUC Stem Mean: unit not given here; conditions: for LSC drug response in dose response curves: FIG. 1C; for Effectiveness vs. LSCs (AUCstem mean < mitomycin C AUCblast mean, p<0.1): aggregate viability data of patient samples, in vitro 72 h; for AUC Stem Mean: mean area under dose response curve across patient samples, 72-hour exposure, 8 concentrations; for mean IC50 of LSC samples compared to predicted plasma concentration: FIG. 9, expected plasma concentration in patients with typical dosing
Description: (§1) Isolation of blasts and FACS isolation of LSCs: CD34+ blasts were enriched to >90% using immunomagnetic beads (QuadroMACS). Fluorescence activated cell sorting was performed in a biosafety cabinet enclosed FACS-Aria II (Becton-Dickinson; San Jose, Calif.) housed in the University of Washington Core Cell Analysis Facility where voltage was standardized and calibration was performed daily. Mononuclear cells were stained with allophycocyanin H7 (APC-H7) conjugated anti-human CD45, allophycocyanin (APC) conjugated anti-human CD34, phycoerythrin-Cy7 (PE-Cy7) conjugated anti-human CD38 and phycoerythrin (PE) conjugated anti-human CD123 (all from BD Biosciences Pharmingen, San Jose, Calif.). Initially a blast gate was applied for forward scatter vs. side scatter, then sequential gates for CD45 vs. side scatter, CD34+ and CD38^low or neg, then CD123+ cells to yield the LSCs. The CD38low population was defined by CD38 above the isotype control and below that of mature precursors. Flow cytometry data analysis was performed using FlowJo software (Tree Star, Inc. Ashland, Oreg.).
(§2) After overnight incubation on matrix protein coated 384 well plates, drugs were added to each well using a CyBio Well Vario liquid handler (Amalytik Jena). The cell populations were analyzed for survival after a 72-hour exposure to 8 customized drug concentrations (within the range of 5 pM to 100 microM) of each drug spanning 4 logs. Post exposure viability was measured using CellTiter Glo luminescent reagent (Promega, Madison, Wis.) per manufacturer protocol, then the plates were analyzed with the Envision Multi-label plate reader (Perkin Elmer, Waltham, Mass.). XLFit software (IDBS, Guildford, Surrey, United Kingdom) was used to analyze the data and generate dose response curves based on standard 4-parameter logistic fit. For each plate, data were normalized to DMSO 100% viability and blank controls.
(§3) Area under the curve (AUC) was calculated for each dose response curve. For the 4 patient samples, two-sample two-tailed t-tests were used for group comparisons of AUC values to determine drug specificity and efficacy.
(§4) Drug specificity was defined by group comparisons between AUCs for each drug and cell type across patient samples. […] Group comparisons for categorical variable were completed using Fisher's exact test.

[2] = test system: AML blasts vs. leukemia stem cells (LSCs); assay: Drug specificity: group comparison of AUCs, blasts vs. LSCs across patient samples; assay type: cell-based, human; conditions: aggregate viability data of patient samples; pairwise p-value<0.1
Description: as §2, §3, §4

pediatric AML blasts = conditions: literature; cited from earlier work
LSCs = conditions: literature; cited from earlier work
AML = conditions: literature; cited from earlier work
[3] = test system: AML blasts (CD45dim, side scatter low) from patient samples; assay: High throughput functional drug screen (72-hour exposure, CellTiter Glo viability) on AML blasts; assay type: cell-based, human; conditions: for mean IC50 of blast samples compared to predicted plasma concentration: FIG. 9, expected plasma concentration in patients with typical dosing
Description: as §1
Functional Drug Screen: A CLIA-validated in vitro sensitivity assay was performed that included both FDA approved and investigational drugs. ‘Oncopane11’ comprised of 153 drugs was used for HTS of patient samples and an earlier generation panel of 160 drugs was used for HTS of the NOD/SCID IL2R γc−/− mouse engraftment sample. As detailed above, for the 4 patient samples, using FACS, the blast population (CD45^dim, side scatter^low) was confirmed to be >90% of the viable white blood cell fraction, and the LSC subpopulation (CD34^+CD38^low or negCD123^+) was isolated. For the NOD/SCID IL2R γc−/− mouse engraftment sample, both the pre-engraftment AML blasts (>90% blasts by FACs) and splenic mononuclear cells (91% hCD45+ engrafting subclone as above) were assayed. After overnight incubation on matrix protein coated 384 well plates, drugs were added to each well using a CyBio Well Vario liquid handler (Amalytik Jena). The cell populations were analyzed for survival after a 72-hour exposure to 8 customized drug concentrations (within the range of 5 pM to 100 microM) of each drug spanning 4 logs. Post exposure viability was measured using CellTiter Glo luminescent reagent (Promega, Madison, Wis.) per manufacturer protocol, then the plates were analyzed with the Envision Multi-label plate reader (Perkin Elmer, Waltham, Mass.). XLFit software (IDBS, Guildford, Surrey, United Kingdom) was used to analyze the data and generate dose response curves based on standard 4-parameter logistic fit. For each plate, data were normalized to DMSO 100% viability and blank controls.
as §3
Drug specificity was defined by group comparisons between AUCs for each drug and cell type across patient samples. For blast specific drugs AUCstem mean>AUCblast mean and for LSC specific drugs AUC^stem mean<AUC^blast mean (p<0.1). […] This approach was selected to detect differences within the small sample size, while still maintaining statistical stringency and capturing trends observed in the data set. Group comparisons for categorical variable were completed using Fisher's exact test.

Structure (SMILES)	Effectiveness vs. LSCs (AUCstem mean < mitomycin C AUCblast mean, p<0.1) [1]	Drug specificity (blast specific: AUCstem mean>AUCblast mean; LSC specific: AUCstem mean<AUCblast mean) [2]	AUC Stem Mean [1]	other results
Cc1csc(-c2nnc(Nc3ccc(Oc4ncccc4-c4ccnc(N)n4)cc3)c3ccccc23)c1 [AMG-900]				LSC drug response in dose response curves ([1]; patient sample on the right): sensitive
Nc1ncn([C@@H]2O[C@H](CO)[C@@H](O)[C@H]2O)c(=O)n1 [Azacitidine]	did not result in appreciable cytotoxicity	LSC specific; also recorded: LSC-specific		
CO[C@H]1C(=O)[C@]2(C)[C@@H](OC)C[C@H]3OC[C@@]3(OC(C)=O)[C@H]2[C@H](OC(=O)c2ccccc2)[C@]2(O)C[C@H](OC(=O)[C@H](O)[C@@H](NC(=O)OC(C)(C)C)c3ccccc3)C(C)=C1C2(C)C [Cabazitaxel]	effective		0.0031	effect vs. pediatric AML blasts in vitro (pediatric AML blasts): effective
CC(C)C[C@H](NC(=O)[C@H](CCc1ccccc1)NC(=O)CN1CCOCC1)C(=O)N[C@@H](Cc1ccccc1)C(=O)N[C@@H](CC(C)C)C(=O)[C@@]1(C)CO1 [Carfilzomib]	not effective			anti-LSC effect in vitro in prior studies (LSCs): reduced LSCs in vitro; clinical effect in AML patients (AML): minimal anti-leukemic effects
Nc1nc(Cl)nc2c1ncn2[C@H]1C[C@H](O)[C@@H](CO)O1 [Cladribine]		blast cell specific; also recorded: blast cell-specific		mean IC50 of LSC samples compared to predicted plasma concentration [1]: greater than the predicted plasma concentration; mean IC50 of blast samples compared to predicted plasma concentration [3]: less than predicted plasma concentration
CC1(COc2ccc3c(c2)ncn3-c2ccc3cccc(N4CCC(N)CC4)c3n2)COC1 [Crenolanib]			0.0054	
Nc1ccn([C@@H]2O[C@H](CO)[C@@H](O)[C@@H]2O)c(=O)n1 [Cytarabine]		blast cell specific; also recorded: blast cell-specific		LSC drug response in dose response curves ([1]; patient sample on the left): resistant; LSC drug response in dose response curves ([1]; patient sample on the right): resistant; mean IC50 of LSC samples compared to predicted plasma concentration [1]: greater than the predicted plasma concentration; mean IC50 of blast samples compared to predicted plasma concentration [3]: less than predicted plasma concentration
CCc1cnn2c(NCc3ccc[n+]([O-])c3)cc(N3CCCC[C@H]3CCO)nc12 [Dinaciclib]			0.048	
COc1cc([C@@H]2c3cc4c(cc3[C@@H](O[C@@H]3O[C@@H]5CO[C@@H](C)O[C@H]5[C@H](O)[C@H]3O)[C@H]3COC(=O)[C@H]23)OCO4)cc(OC)c1O [Etoposide]		blast cell specific; also recorded: blast cell-specific		mean IC50 of LSC samples compared to predicted plasma concentration [1]: greater than the predicted plasma concentration; mean IC50 of blast samples compared to predicted plasma concentration [3]: less than predicted plasma concentration
CC(=O)[C@]1(O)Cc2c(O)c3c(c(O)c2[C@@H](O[C@H]2C[C@H](N)[C@H](O)[C@H](C)O2)C1)C(=O)c1ccccc1C3=O [Idarubicin]		blast cell specific; also recorded: blast cell-specific		LSC drug response in dose response curves ([1]; patient sample on the left): resistant; mean IC50 of LSC samples compared to predicted plasma concentration [1]: greater than the predicted plasma concentration; mean IC50 of blast samples compared to predicted plasma concentration [3]: less than predicted plasma concentration
CC(C)C[C@@H](C=O)NC(=O)[C@H](CC(C)C)NC(=O)[C@H](CC(C)C)NC(=O)OCc1ccccc1 [MG-132] (Cbz-Leu-Leu-Leu-aldehyde)			0.0039	
CO[C@@]12[C@H](COC(N)=O)C3=C(C(=O)C(C)=C(N)C3=O)N1C[C@@H]1N[C@@H]12 [Mitomycin C]		blast cell specific		LSC response to mitomycin C in dose response curves ([1]; FIG. 3, both patient samples): resistant; Blast response to mitomycin C in dose response curves ([3]; FIG. 3, both patient samples): sensitive
Nc1ccccc1NC(=O)c1ccc(CNc2nccc(-c3cccnc3)n2)cc1 [Mocetinostat]	LSC effective		0.0029	
Cc1ccc([N+](=O)[O-])cc1S(=O)(=O)N(C)/N=C/c1cnc2ccc(Br)cn12 [PIK-75]	effective		0.0041	
Cc1ccc(C(=O)Nc2ccc(CN3CCN(C)CC3)c(C(F)(F)F)c2)cc1C#Cc1cnc2cccnn12 [Ponatinib]			0.00085	
C/C=C1\NC(=O)[C@H]2CSSCC/C=C/[C@H](CC(=O)N[C@H](C(C)C)C(=O)N2)OC(=O)[C@H](C(C)C)NC1=O [Romidepsin]			0.00041	
CN1CCC(CNc2ccc3ncc(-c4cccc(OC(F)(F)F)c4)n3n2)CC1 [SGI-1776]			0.00076	
CNC(=O)c1cc(Oc2ccc(NC(=O)Nc3ccc(Cl)c(C(F)(F)F)c3)cc2)ccn1 [Sorafenib]	effectively killed; also recorded: effective	LSC specific; also recorded: LSC-specific	0.0045	
CCN(CC)CCNC(=O)c1c(C)[nH]c(/C=C2\C(=O)Nc3ccc(F)cc32)c1C [Sunitinib]			0.00039	
COCCn1c2c([n+](Cc3cnccn3)c1C)C(=O)c1ccccc1C2=O [YM-155]	effective		0.00089	LSC drug response in dose response curves ([1]; patient sample on the left): sensitive
CC(C)C[C@H](NC(=O)[C@H](Cc1ccccc1)NC(=O)c1cnccn1)B(O)O [bortezomib]	ineffective			
Nc1nc(Cl)nc2c1ncn2[C@@H]1O[C@H](CO)[C@@H](O)[C@@H]1F [clofarabine]		trended towards blast cell specific; also recorded: trended towards blast cell-specific		mean IC50 of LSC samples compared to predicted plasma concentration [1]: greater than the predicted plasma concentration; mean IC50 of blast samples compared to predicted plasma concentration [3]: less than predicted plasma concentration
COc1cccc2c1C(=O)c1c(O)c3c(c(O)c1C2=O)C[C@@](O)(C(C)=O)C[C@@H]3O[C@H]1C[C@H](N)[C@H](O)[C@H](C)O1 [daunorubicin]		non-specific		LSC drug response in dose response curves ([1]; patient sample on the right): resistant; mean IC50 of LSC samples compared to predicted plasma concentration [1]: opposite pattern; mean IC50 of blast samples compared to predicted plasma concentration [3]: opposite pattern
Nc1ccn([C@@H]2O[C@H](CO)[C@@H](O)C2(F)F)c(=O)n1 [gemcitabine]				LSC drug response in dose response curves ([1]; patient sample on the left): sensitive
CC(C)C[C@H](NC(=O)CNC(=O)c1cc(Cl)ccc1Cl)B(O)O [ixazomib]				anti-LSC effect in vitro in prior studies (LSCs): anti-LSC effect was shown in vitro
O=C1c2c(O)ccc(O)c2C(=O)c2c(NCCNCCO)ccc(NCCNCCO)c21 [mitoxantrone]		trended towards blast cell specific; also recorded: trended towards blast cell-specific		mean IC50 of LSC samples compared to predicted plasma concentration [1]: less than predicted plasma concentration; mean IC50 of blast samples compared to predicted plasma concentration [3]: less than predicted plasma concentration
